Laboratory results published in US20120094998A1, “Oligomer-Protein Tyrosine Kinase Inhibitor Conjugates” (Nektar Therapeutics, priority 2009, published 2012).
≈ marks a conversion by molar mass, not a printed value. Where two headings read alike, the source gives them in different places. One block for each compound: values may come before it.

How the values were obtained:
[1] = target: T1, ABL (Homo sapiens, UniProt P00519); test: Off-chip mobility-shift kinase assay (Caliper LABCHIP), ABL; conditions: for ABL AVG % Activity at 1.0E−09: concentration 1.0E−09; for ABL AVG % Activity at 1.0E−10: concentration 1.0E−10; for ABL AVG % Activity at 3.0E−09: concentration 3.0E−09; for ABL AVG % Activity at 3.0E−10: concentration 3.0E−10
[2] = Thermodynamic solubility; assay type: physicochemical; conditions: aqueous buffer, thermodynamic from solid; phosphate buffered saline, pH 7.4; ambient temperature overnight
Description: Test compound (2.5 mg of solid; n=1) is weighed in a clear glass vial and buffer (0.5 mL) is added (phosphate buffered saline, pH 7.4). The solution is agitated at ambient temperature overnight using a vial roller system. […] Duplicate aliquots (50 μL) are sampled from the filtrate and diluted with one volume of 0.1 N hydrochloric acid and methanol (1:1 v/v) before analysis by HPLC-UV. […] The concentration of test compound in the filtrate is quantified relative to the concentration standard.
Analysis is performed using a gradient HPLC-UV system with a total cycle time of six minutes.

[3] = Caco-2 permeability (bi-directional; pH 7.4/pH 7.4); assay type: in vitro ADME; conditions: human; for Papp A→B at 120 min, 10 μM: Caco-2, pH 7.4, read-out: Permeability (cm^2/s × 10^6)
Description: Caco-2 cells are used as an in vitro model of the human intestinal epithelium and permit assessment of the intestinal permeability of potential drugs. Test compound is added to either the apical or basolateral side of a confluent monolayer of Caco-2 cells and permeability is measured by monitoring the appearance of the test compound on the opposite side of the membrane using LC-MS/MS. Apparent permeability (Papp) coefficients, efflux ratio for the test compound and recovery values were determined.
To measure the permeability of test compound in the apical to basolateral (A-B) and basolateral to apical (B-A) direction across Caco-2 cells.
Caco-2 cells obtained from the ATCC are used between passage numbers 40-60. Cells are seeded on to Millipore Multiscreen Caco-2 plates at 1×10^5 cells/cm^2. They are cultured for 20 days in DMEM and media is changed every two or three days. On day 20 the permeability study is performed.
On day 20, the monolayers are prepared by rinsing both basolateral and apical surfaces twice with HBSS at 37° C. Cells are then incubated with HBSS in both apical and basolateral compartments for 40 min to stabilize physiological parameters. HBSS is then removed from the apical compartment and replaced with test compound dosing solutions. […] The fluorescent integrity marker lucifer yellow is also included in the dosing solution. Analytical standards are made from dosing solutions. The apical compartment inserts are then placed into ‘companion’ plates containing fresh HBSS. For basolateral to apical (B-A) permeability determination the experiment is initiated by replacing buffer in the inserts then placing them in companion plates containing dosing solutions. At 120 minutes the companion plate is removed and apical and basolateral samples diluted for analysis by LC-MS/MS. Test compound permeability was assessed in duplicate. On each plate, compounds of known permeability characteristics were run as controls.
Test and control compounds were quantified by LC-MS/MS cassette analysis using a 5-point calibration with appropriate dilution of the samples. Cyprotex generic analytical conditions were used. The starting concentration (C0) and experimental recovery were calculated from both apical and basolateral compartment concentrations.
The integrity of the monolayers throughout the experiment was checked by monitoring lucifer yellow permeation using fluorimetric analysis. Lucifer yellow permeation is low if monolayers have not been damaged. […] If lucifer yellow Papp values are above QC limits in both replicate wells for a test compound, the compound was re-tested.
Data Analysis: The permeability coefficient for each compound (Papp) is calculated from the following equation: […]
wherein dQ/dt is the rate of permeation of the drug across the cells, C0 is the donor compartment concentration at time zero and A is the area of the cell monolayer. C0 is obtained from analysis of donor and receiver compartments at the end of the incubation period. It is assumed that all of the test compound measured after 120 minutes incubation was initially present in the donor compartment at 0 minutes. An efflux ratio (ER) is derived as follows:
Talinolol (a known P-gp substrate) is also included as a control compound to assess whether functional P-gp is present in the Caco-2 cell monolayer.

[4] = target: PDGFRβ (Homo sapiens, UniProt P09619); test: Off-chip mobility-shift kinase assay (Caliper LABCHIP), PDGFR
[5] = target: cKIT (Homo sapiens, UniProt P10721); test: Off-chip mobility-shift kinase assay (Caliper LABCHIP), C-kit
[6] = target: T1, ABL
[7] = dasatinib-corresponding compounds
[8] = imatinib-corresponding compounds

Sequence of cKIT (P10721 26-976): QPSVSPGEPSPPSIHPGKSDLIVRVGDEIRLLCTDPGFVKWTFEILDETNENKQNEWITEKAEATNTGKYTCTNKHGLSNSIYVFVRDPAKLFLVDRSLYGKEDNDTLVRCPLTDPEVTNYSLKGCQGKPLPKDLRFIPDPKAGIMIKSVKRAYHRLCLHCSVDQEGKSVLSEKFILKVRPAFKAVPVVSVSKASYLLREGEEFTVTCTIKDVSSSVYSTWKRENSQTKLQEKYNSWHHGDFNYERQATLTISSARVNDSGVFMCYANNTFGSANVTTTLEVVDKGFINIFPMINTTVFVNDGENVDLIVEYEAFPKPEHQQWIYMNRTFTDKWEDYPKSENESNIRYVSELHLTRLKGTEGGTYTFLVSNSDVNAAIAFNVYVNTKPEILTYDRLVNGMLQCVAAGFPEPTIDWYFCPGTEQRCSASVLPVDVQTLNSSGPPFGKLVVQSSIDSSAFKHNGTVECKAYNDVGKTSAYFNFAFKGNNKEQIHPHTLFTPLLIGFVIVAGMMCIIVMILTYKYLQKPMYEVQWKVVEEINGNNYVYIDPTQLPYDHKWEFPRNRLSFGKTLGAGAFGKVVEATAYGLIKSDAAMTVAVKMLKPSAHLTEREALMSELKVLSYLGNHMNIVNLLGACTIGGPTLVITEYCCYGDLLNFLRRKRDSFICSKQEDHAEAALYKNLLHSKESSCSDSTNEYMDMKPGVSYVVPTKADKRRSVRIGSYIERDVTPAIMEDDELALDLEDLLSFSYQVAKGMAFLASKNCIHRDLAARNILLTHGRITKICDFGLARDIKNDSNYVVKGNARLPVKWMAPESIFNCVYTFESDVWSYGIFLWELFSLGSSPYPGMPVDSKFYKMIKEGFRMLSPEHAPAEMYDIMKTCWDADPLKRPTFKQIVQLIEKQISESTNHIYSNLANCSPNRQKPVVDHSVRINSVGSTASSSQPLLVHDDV
T1 sequence (P00519 whole entry): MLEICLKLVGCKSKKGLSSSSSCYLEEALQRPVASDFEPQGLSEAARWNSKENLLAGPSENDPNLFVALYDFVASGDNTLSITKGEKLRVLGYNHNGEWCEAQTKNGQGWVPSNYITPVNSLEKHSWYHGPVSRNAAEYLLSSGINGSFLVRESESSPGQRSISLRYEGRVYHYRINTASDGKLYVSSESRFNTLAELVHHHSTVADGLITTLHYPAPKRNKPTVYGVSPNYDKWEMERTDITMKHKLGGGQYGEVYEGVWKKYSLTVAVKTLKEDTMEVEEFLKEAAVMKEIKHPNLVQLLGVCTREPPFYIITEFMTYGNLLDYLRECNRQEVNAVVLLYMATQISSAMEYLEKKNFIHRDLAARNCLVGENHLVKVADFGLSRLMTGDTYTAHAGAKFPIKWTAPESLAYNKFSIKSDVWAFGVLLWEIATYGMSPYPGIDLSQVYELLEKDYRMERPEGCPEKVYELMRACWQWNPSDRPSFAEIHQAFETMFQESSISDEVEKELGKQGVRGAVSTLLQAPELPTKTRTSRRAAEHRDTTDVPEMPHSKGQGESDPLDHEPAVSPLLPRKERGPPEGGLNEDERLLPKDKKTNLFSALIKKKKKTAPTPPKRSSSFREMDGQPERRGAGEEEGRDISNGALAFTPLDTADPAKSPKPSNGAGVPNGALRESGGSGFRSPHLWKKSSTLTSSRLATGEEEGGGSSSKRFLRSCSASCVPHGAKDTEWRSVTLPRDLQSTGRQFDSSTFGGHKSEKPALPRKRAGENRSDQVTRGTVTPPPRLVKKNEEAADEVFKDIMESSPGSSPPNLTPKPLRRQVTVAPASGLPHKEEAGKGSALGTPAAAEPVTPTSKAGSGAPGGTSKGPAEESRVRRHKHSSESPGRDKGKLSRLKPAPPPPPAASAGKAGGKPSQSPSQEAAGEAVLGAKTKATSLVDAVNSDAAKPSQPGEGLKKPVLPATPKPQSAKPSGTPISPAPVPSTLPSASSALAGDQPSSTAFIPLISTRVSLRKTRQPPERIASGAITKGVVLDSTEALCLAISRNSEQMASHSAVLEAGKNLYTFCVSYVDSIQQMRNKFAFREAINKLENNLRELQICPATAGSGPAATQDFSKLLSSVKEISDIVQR
Sequence of PDGFRβ (P09619 33-1106): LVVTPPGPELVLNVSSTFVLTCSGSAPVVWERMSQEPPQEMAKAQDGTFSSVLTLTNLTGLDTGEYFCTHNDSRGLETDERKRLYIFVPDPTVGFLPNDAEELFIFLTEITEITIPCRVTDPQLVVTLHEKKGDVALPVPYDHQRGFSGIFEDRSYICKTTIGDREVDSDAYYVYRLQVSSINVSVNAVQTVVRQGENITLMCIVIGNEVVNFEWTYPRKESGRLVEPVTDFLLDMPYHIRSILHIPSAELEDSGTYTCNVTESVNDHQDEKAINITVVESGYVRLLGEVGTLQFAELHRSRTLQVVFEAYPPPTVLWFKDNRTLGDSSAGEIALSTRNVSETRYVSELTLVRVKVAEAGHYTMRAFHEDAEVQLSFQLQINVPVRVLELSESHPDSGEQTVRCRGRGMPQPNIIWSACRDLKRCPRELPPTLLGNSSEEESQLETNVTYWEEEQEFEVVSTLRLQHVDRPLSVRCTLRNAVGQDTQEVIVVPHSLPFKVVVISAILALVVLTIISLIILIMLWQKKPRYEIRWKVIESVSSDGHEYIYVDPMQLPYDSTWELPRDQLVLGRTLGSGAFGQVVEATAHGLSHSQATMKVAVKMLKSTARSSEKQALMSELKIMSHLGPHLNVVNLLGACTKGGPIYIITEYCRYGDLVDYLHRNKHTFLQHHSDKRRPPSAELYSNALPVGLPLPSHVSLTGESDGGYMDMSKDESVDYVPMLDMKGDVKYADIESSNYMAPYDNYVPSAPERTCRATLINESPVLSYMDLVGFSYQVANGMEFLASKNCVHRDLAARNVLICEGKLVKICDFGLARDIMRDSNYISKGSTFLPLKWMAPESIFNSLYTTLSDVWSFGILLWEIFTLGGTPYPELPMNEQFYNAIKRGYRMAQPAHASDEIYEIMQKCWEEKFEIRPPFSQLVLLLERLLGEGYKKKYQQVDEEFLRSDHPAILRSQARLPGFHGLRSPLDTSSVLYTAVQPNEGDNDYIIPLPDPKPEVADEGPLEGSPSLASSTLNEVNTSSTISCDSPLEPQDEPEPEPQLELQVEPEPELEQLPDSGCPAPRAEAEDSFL

SMILES: COCCOCCOCCNCc1ccc(C(=O)Nc2ccc(C)c(Nc3nccc(-c4cccnc4)n3)c2)cc1 [mPEG3-N-Imatinib]
- solubility [2]: 3.3 mg/mL (≈ 5.93 mM)
- Papp A→B at 120 min, 10 μM [3]: 6 ± 0.7 nm/s

SMILES: COCCOCCOCCOCC(=O)OCCN1CCN(c2cc(Nc3ncc(C(=O)Nc4c(C)cccc4Cl)s3)nc(C)n2)CC1 [mPEG3-COO-Dasatinib]
- ABL AVG % Activity at 1.0E−09 [6]: 2%
- ABL AVG % Activity at 1.0E−10 [6]: 80%
- ABL AVG % Activity at 1.0E−11 [6]: 98%
- ABL AVG % Activity at 3.0E−09 [6]: −1%
- ABL AVG % Activity at 3.0E−10 [6]: 44%
- ABL AVG % Activity at 3.0E−11 [6]: 92%
- IC50 [1]: 0.00029 µM

Results, then the compound that gave them:

- IC50 [1]: 0.00031 µM
- ABL AVG % Activity at 1.0E−09 [1, 7]: 4%
- ABL AVG % Activity at 1.0E−10 [1, 7]: 80%
- ABL AVG % Activity at 1.0E−11 ([1]; concentration 1.0E−11, dasatinib-corresponding compounds): 97%
- ABL AVG % Activity at 3.0E−09 [1, 7]: −1%
- ABL AVG % Activity at 3.0E−10 [1, 7]: 47%
- ABL AVG % Activity at 3.0E−11 ([1]; concentration 3.0E−11, dasatinib-corresponding compounds): 92%
SMILES: COCCOCCOCCOCCOCCOCCOCCOCCOCCNC(=O)OCCN1CCN(c2cc(Nc3ncc(C(=O)Nc4c(C)cccc4Cl)s3)nc(C)n2)CC1 [mPEG9-NHCOO-Dasatinib]

- solubility [2]: 2.7 mg/mL (≈ 3.29 mM)
- Papp A→B at 120 min, 10 μM [3]: 0.1 ± 0.04 nm/s
- efflux ratio at 120 min, 10 μM ([3]; Caco-2, ratio of B-A and A-B permeabilities, 10 μM, 120 minutes): 482
- IC50 [1]: ≥ 3 µM
- ABL AVG % Activity at 1.0E−06 ([1]; concentration 1.0E−06, imatinib-corresponding compounds): 77%
- ABL AVG % Activity at 1.0E−07 ([1]; concentration 1.0E−07, imatinib-corresponding compounds): 89%
- ABL AVG % Activity at 1.0E−08 ([1]; concentration 1.0E−08, imatinib-corresponding compounds): 97%
- ABL AVG % Activity at 1.0E−09 [1, 8]: 96%
- ABL AVG % Activity at 1.0E−10 [1, 8]: 96%
- ABL AVG % Activity at 3.0E−06 ([1]; concentration 3.0E−06, imatinib-corresponding compounds): 70%
- ABL AVG % Activity at 3.0E−07 ([1]; concentration 3.0E−07, imatinib-corresponding compounds): 85%
- ABL AVG % Activity at 3.0E−08 ([1]; concentration 3.0E−08, imatinib-corresponding compounds): 93%
- ABL AVG % Activity at 3.0E−09 [1, 8]: 96%
- ABL AVG % Activity at 3.0E−10 [1, 8]: 96%
- IC50 [4]: 0.29 µM
- PDGFR AVG % Activity at 1.0E−06 ([4]; concentration 1.0E−06): 11%
- PDGFR AVG % Activity at 1.0E−07 ([4]; concentration 1.0E−07): 65%
- PDGFR AVG % Activity at 1.0E−08 ([4]; concentration 1.0E−08): 83%
- PDGFR AVG % Activity at 1.0E−09 ([4]; concentration 1.0E−09): 78%
- PDGFR AVG % Activity at 1.0E−10 ([4]; concentration 1.0E−10): 89%
- PDGFR AVG % Activity at 3.0E−06 ([4]; concentration 3.0E−06): 0%
- PDGFR AVG % Activity at 3.0E−07 ([4]; concentration 3.0E−07): 38%
- PDGFR AVG % Activity at 3.0E−08 ([4]; concentration 3.0E−08): 75%
- PDGFR AVG % Activity at 3.0E−09 ([4]; concentration 3.0E−09): 100%
- PDGFR AVG % Activity at 3.0E−10 ([4]; concentration 3.0E−10): 86%
- IC50 [5]: 1.6 µM
- C-kit AVG % Activity at 1.0E−05 ([5]; concentration 1.0E−05): 9%
- C-kit AVG % Activity at 1.0E−06 ([5]; concentration 1.0E−06): 62%
- C-kit AVG % Activity at 1.0E−07 ([5]; concentration 1.0E−07): 93%
- C-kit AVG % Activity at 1.0E−08 ([5]; concentration 1.0E−08): 98%
- C-kit AVG % Activity at 3.0E−05 ([5]; concentration 3.0E−05): 2%
- C-kit AVG % Activity at 3.0E−06 ([5]; concentration 3.0E−06): 32%
- C-kit AVG % Activity at 3.0E−07 ([5]; concentration 3.0E−07): 81%
- C-kit AVG % Activity at 3.0E−08 ([5]; concentration 3.0E−08): 99%
- C-kit AVG % Activity at 3.0E−09 ([5]; concentration 3.0E−09): 99%
SMILES: COCCOCCOCCOCCOCCOCCOCCOCCOCCNCc1ccc(C(=O)Nc2ccc(C)c(Nc3nccc(-c4cccnc4)n3)c2)cc1 [mPEG9-N-Imatinib]

- solubility [2]: 0.5 mg/mL (≈ 0.799 mM)
- Papp A→B at 120 min, 10 μM [3]: 40 ± 8 nm/s
SMILES: COCCOCCOCCN1CCN(Cc2ccc(C(=O)Nc3ccc(C)c(Nc4nccc(-c5cccnc5)n4)c3)cc2)CC1 [mPEG3-N′-Imatinib]
